Results: EPA's ToxValDB 9.5 (doi:10.2903/j.efsa.2006.82r)
In brackets after ≈: the same amount, converted by molar mass.

Assays:
Bird = conditions: acute; oral; unspecified; mortality
Colinus virginianus = conditions: for LD50: acute, oral, mortality
Canidae = conditions: oral, Dog Other, organ weight
Trichogramma cacoeciae = conditions: not reported; mortality
Apis mellifera = conditions: acute; duration: 48 hours; oral; unspecified; mortality
Anas platyrhynchos = conditions: for LD50: oral, mortality

SMILES: COc1ccc(C(=CC(=O)N2CCOCC2)c2ccc(Cl)cc2)cc1OC [Dimethomorph]
- LD50 (Bird): 3900 mg/kg
- LC50 (Tagia sp.; acute, duration: 14 days, mortality): > 1000 mg/kg
- NOEC (Tagia sp.; chronic/long-term, duration: 8 weeks, reproduction): ≥ 120 mg/kg
- NOAEL (Rattus norvegicus; developmental, development): 60 mg/kg-day
- NOAEL (Rattus norvegicus; subchronic, duration: 90 days, oral): 16 mg/kg-day
- LD50 (Colinus virginianus; diet): > 728 mg/kg-day
- LD50 (Colinus virginianus): > 2000 mg/kg
- NOEL (Colinus virginianus; reproduction developmental): 58.4 mg/kg-day
- NOAEL (Canidae; chronic, duration: 1 years, M/F): 4.9 mg/kg-day
- NOAEL (Canidae; subchronic, duration: 90 days): 15 mg/kg-day
- LEL (Trichogramma cacoeciae): 115 g/ha
- LD50 (Apis mellifera): > 32.4 µg/piece
- LD50 (Anas platyrhynchos; acute, unspecified): > 2000 mg/kg
- NOEL (Anas platyrhynchos; reproductive): 78.4 mg/kg-day
- LD50 (Anas platyrhynchos; short-term, feed): > 938 mg/kg-day
- LC50 (Oncorhynchus mykiss; acute, duration: 96 hours, mortality): 3.4 mg/L (≈ 8.77 µM)
- NOEC (Oncorhynchus mykiss; chronic/long-term, duration: 96 days, development): 0.056 mg/L
